Reference: article PMC3271436 (Osteoarthritis and Cartilage, 2008)

What was measured:
Assay type in all cases: biochemical
[1] = molecular target: T1, purified IGFBP-5 protease from human osteoarthritic joint fluid (complement 1s) (Homo sapiens, UniProt P09871); assay: IGFBP-5 cleavage by protease purified from joint fluid
T1 sequence (P09871 16-688): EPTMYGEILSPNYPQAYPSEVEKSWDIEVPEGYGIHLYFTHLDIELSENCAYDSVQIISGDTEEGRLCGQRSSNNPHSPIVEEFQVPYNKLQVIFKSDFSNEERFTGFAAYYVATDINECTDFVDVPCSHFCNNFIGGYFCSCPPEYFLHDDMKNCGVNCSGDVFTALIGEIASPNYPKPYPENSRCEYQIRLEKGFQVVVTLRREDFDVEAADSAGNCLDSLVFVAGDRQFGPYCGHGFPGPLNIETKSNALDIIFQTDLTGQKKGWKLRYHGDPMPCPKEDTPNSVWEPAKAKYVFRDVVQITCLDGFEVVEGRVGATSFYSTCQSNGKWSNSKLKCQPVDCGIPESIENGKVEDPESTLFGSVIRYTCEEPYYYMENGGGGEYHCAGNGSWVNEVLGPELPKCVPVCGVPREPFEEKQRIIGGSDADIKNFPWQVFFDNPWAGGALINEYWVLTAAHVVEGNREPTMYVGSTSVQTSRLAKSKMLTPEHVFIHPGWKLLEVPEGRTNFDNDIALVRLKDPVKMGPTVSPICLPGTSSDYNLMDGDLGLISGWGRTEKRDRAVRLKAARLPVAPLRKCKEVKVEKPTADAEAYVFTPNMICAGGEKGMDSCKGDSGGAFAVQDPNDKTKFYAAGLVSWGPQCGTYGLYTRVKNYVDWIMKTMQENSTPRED

[2] = molecular target: T2, IGFBP-5 protease activity in human osteoarthritic joint fluid (Homo sapiens, UniProt P09871)
T2 sequence (P09871 16-688): T1 sequence (P09871 16-688)

[3] = molecular target: T3, purified C1s (Calbiochem) (Homo sapiens, UniProt P09871); assay: C1s chromogenic assay with purified commercial C1s, substrate S-2765
T3 sequence (P09871 16-688): T1 sequence (P09871 16-688)

Structure (SMILES) | Purified Protease IC50 ([1]; protease purified through Con-A step, 118 ng IGFBP-5, 16 h at 37°C) | Human Joint Fluid IC50 ([2]; crude joint fluid, 118 ng IGFBP-5, 16 h at 37°C) | IC50 [1] [nM] | activity in words against the purified joint fluid preparation ([1]; purified joint fluid preparation) | activity in words against IGFBP-5 protease activity in crude joint fluid ([2]; 0.1 to 360 uM) | C1s inhibition in words [3] | IC50 [3] [nM]
c1cnc2c(c1)ccc1cccnc12 [1,10-phenanthroline] | No inhibition | No Inhibition |  |  |  |  | 
N=C(N)c1ccc2cc(OC(=O)c3ccc(N=C(N)N)cc3)ccc2c1 [FUT175] |  |  | 1000 | most active | most active | potent C1s inhibitor | 70
